The results in this text go back to a melting point compilation (Tetko et al.).

Compound `CC(C)(CC(=O)c1ccc(Cl)cc1)C(=O)O` returned a melting point of 147 to 149 °C.

`Cc1cccc(S(N)(=O)=O)c1Cl` came in with a melting point of 169 to 171 °C.

Take `CC(=CC(=O)O)c1ccccc1`: the melting point was in the range of 93 to 95 °C.

For `O=Cc1ccc(OCC(=O)O)c([N+](=O)[O-])c1`, the melting point lay in the range of 156 to 158 °C.

In turn, `Nc1ccc(I)cc1O` registered a melting point of 104 to 106 °C.

As for `O=C(O)c1csc(-c2nnc[nH]2)n1`, the melting point fell in the range of 299 to 301 °C.

Compound `O=C(O)C1CC(=O)N(c2cn[nH]c2)C1` (stereo not drawn) gave a melting point of 259 to 261 °C.

`COC(=O)Nc1ccccc1O` gave a melting point of 120 to 122 °C.

As for `CN(CCC#N)c1ccc(C=O)cc1`, the melting point lay in the range of 70 to 74 °C.

Compound `CS(=O)(=O)CCn1cc(Br)cn1` came in with a melting point of 94 to 96 °C.

Consider `O=Cc1cnc(N2CCCC2)nc1`, for which the melting point is 118 to 120 °C.

Regarding `O=C(c1cc(F)ccc1F)c1ccccc1Cl`, the melting point lay within 67 to 69 °C.

`Fc1c(Br)cncc1Br`: the melting point is 97 to 99 °C.

For the compound `Cc1nc(-c2ccccn2)[nH]c(=O)c1CC(=O)O`, the melting point is 209 to 211 °C.

As to `O=C(O)C1(S(=O)(=O)c2ccc(Br)cc2)CCCC1`, the melting point was in the range of 138 to 140 °C.

In turn, `COc1ccc(C(O)CCC(=O)O)cc1` (stereo not drawn) showed a melting point of 92 to 94 °C.

In the case of `Cc1ccc(I)c(C(=O)O)c1`, the melting point was in the range of 119 to 121 °C.

As for `CNC(=O)c1cnc(C)[nH]c1=O`, the melting point is 319 to 321 °C.

Consider `O=C(O)c1cc2c(cc1[N+](=O)[O-])OCCO2`, for which the melting point lay in the range of 221 to 223 °C.

As to `CN1CCC(C(=O)O)CC1=O` (stereo not drawn), the melting point lay in the range of 163 to 165 °C.

Take `CN(C)S(=O)(=O)c1ccc(N)cc1`: the melting point was in the range of 119 to 162 °C.

Turning to `CN1CCC(Nc2ccc3cn[nH]c3c2)CC1`, the melting point lay in the range of 165 to 167 °C.

The compound `COc1cccc(-c2nc(C=O)cs2)c1` returned a melting point of 92 to 94 °C.

The compound `ON=C(C(=NO)c1ccccc1)c1ccccc1` displayed a melting point of 245 to 246 °C.

In turn, `COc1cc(-c2ccccc2)ccc1C=O` registered a melting point of 91 to 93 °C.

In the case of `CC(C)C(C(N)=O)c1cccnc1` (stereo not drawn), the melting point was in the range of 176 to 178 °C.

In the case of `OCCNc1ncccn1`, the melting point was 76 to 78 °C.

The compound `O=C(O)/C=C/c1ccc(Cl)s1` returned a melting point of 198 to 200 °C.

Take `CCOc1ccc(C(=O)O)cc1OC`: the melting point was in the range of 198 to 202 °C.

`O=C(O)c1ccc2nnnn2c1` registered a melting point of 216 to 218 °C.

With `CC(C)(C)NS(=O)(=O)Cc1cccc(N)c1`, the melting point lay in the range of 101 to 103 °C.

In turn, `c1cc2c(cn1)CCN2` yielded a melting point of 77 to 79 °C.

Turning to `Nc1ccc2c(c1)CCC(=O)N2Cc1ccc(Cl)cc1`, the melting point lay within 142 to 144 °C.

In turn, `Cc1ccc(-c2csc(CC#N)n2)cc1` displayed a melting point of 91 to 93 °C.

With `Nc1sc2c(c1C(=O)c1cccc(F)c1)CCCC2`, the melting point fell in the range of 110 to 114 °C.

Regarding `O=C(O)c1ccc(CS(=O)(=O)C(F)F)cc1`, the melting point was in the range of 218 to 220 °C.

In turn, `O=Cc1ccc(-c2ccc(C(F)(F)F)cc2)s1` showed a melting point of 124 to 126 °C.

`Sc1nnc(COc2ccc(Cl)cc2)n1Cc1ccccc1` gave a melting point of 211 to 213 °C.

`CC1CN(c2ccc(N)cc2C(F)(F)F)CC(C)O1` (stereo not drawn): the melting point fell in the range of 122 to 124 °C.

Turning to `CS(=O)(=O)Nc1cccc(CN)c1`, the melting point was 126 to 128 °C.

For `N#Cc1cnc2ccccc2c1N1CCNCC1`, the melting point is 160 to 162 °C.

Turning to `NC(=O)C1CCCn2ccnc21` (stereo not drawn), the melting point lay in the range of 177 to 179 °C.

`COC(=O)C(C)(N)C(c1ccccc1)c1ccccc1` (stereo not drawn) displayed a melting point of 68 to 70 °C.

In turn, `COc1ccc(C2(C)NC(=O)NC2=O)cc1OC` (stereo not drawn) had a melting point of 177 to 179 °C.

`O=C1CCC(Cc2cccc(O)c2)O1` (stereo not drawn) displayed a melting point of 102 to 104 °C.

In the case of `CC(C)(C)NC(=O)CC1(C(=O)O)CCCC1`, the melting point lay within 201 to 203 °C.

In turn, `CC(C)n1[nH]c(-c2ccccc2)cc1=N` showed a melting point of 83 to 85 °C.

In turn, `CN(C)c1ccc(C(=N)N)c(Cl)c1` showed a melting point of 148 to 150 °C.

Take `COc1ccc(-c2n[nH]c(S)nc2=O)cc1`: the melting point is 284 to 286 °C.

In turn, `ClCc1nnc(-c2ccccc2Cl)o1` yielded a melting point of 91 to 93 °C.

Regarding `O=C(O)c1nn(-c2ccc(F)cc2)cc1O`, the melting point was 227 to 229 °C.

In turn, `CC(C)c1noc2ncc(C(=O)O)cc12` gave a melting point of 159 to 161 °C.

Consider `Nc1nc(-c2ccc3c(c2)OCCO3)cs1`, for which the melting point lay in the range of 180 to 182 °C.

The compound `CC(=O)c1cccc(S(=O)(=O)NCCC(=O)O)c1` gave a melting point of 106 to 110 °C.

Consider `CCc1nc(C(=O)O)co1`, for which the melting point is 101 to 103 °C.

`O=C1CCCCC(N2C(=O)c3ccccc3C2=O)C1` (stereo not drawn) registered a melting point of 119 to 121 °C.

`Nc1ccc2c(ccn2CCN2CCOCC2)c1` returned a melting point of 102 to 104 °C.

With `O=C(O)CCNS(=O)(=O)c1cccc(Br)c1`, the melting point was in the range of 146 to 148 °C.

In turn, `CC(Cl)C(=O)NC1CCOc2ccccc21` (stereo not drawn) came in with a melting point of 129 to 131 °C.

Turning to `CCCC(C)(N)C(=O)O` (stereo not drawn), the melting point was 269 to 271 °C.

The compound `CC(C)C(Br)C(N)=O` (stereo not drawn) registered a melting point of 131 to 133 °C.

The compound `CC(=O)Nc1ccc(C)cc1O` returned a melting point of 170 to 172 °C.

`O=C(O)c1ccc(N2CC=CC2)cc1` registered a melting point of 285 to 287 °C.

In the case of `NC(=S)NN=Cc1cccs1`, the melting point is 161 to 163 °C.

Turning to `c1ccc2c(c1)CC(n1ccnc1)CN2` (stereo not drawn), the melting point lay in the range of 110 to 112 °C.

In turn, `CC(C)C(Br)C(=O)N(C)C1CCCCC1` (stereo not drawn) showed a melting point of 72 to 74 °C.

Consider `O=C(CCl)NC12CC3CC(CC(C3)C1)C2`, for which the melting point lay within 110 to 112 °C.

`CC(C)(O)c1ccc(O)cc1`: the melting point lay in the range of 104 to 106 °C.

Turning to `O=C(O)c1nnn(-c2ccccc2)c1C1CC1`, the melting point is 174 to 176 °C.

Turning to `O=C(O)C1CC1c1cccc(Cl)c1Cl` (stereo not drawn), the melting point was in the range of 124 to 126 °C.

Compound `O=C(Nc1ccccc1)OCCBr` gave a melting point of 64 to 66 °C.

Compound `Oc1ccc(-c2nc3ccccc3[nH]2)cn1` showed a melting point of 238 to 242 °C.

Take `O=C(NC1(C(=O)O)CCCCC1)c1ccc(Br)cc1`: the melting point is 238 to 240 °C.

As for `O=C(CCl)NCCC(c1ccccc1)c1ccccc1`, the melting point is 104 to 107 °C.

The compound `O=C(O)c1cc(C2CC2)nc2ccccc12` came in with a melting point of 208 to 210 °C.

`CCC(NC(=O)OC(C)(C)C)C(=O)O` (stereo not drawn) yielded a melting point of 88 to 90 °C.

The compound `O=C(O)CCS(=O)(=O)Nc1ccccc1` had a melting point of 127 to 129 °C.

`CC(C)(C)Cc1nc(-c2cccc(C(=O)O)c2)no1` gave a melting point of 160 to 162 °C.

Compound `O=Cc1ccccc1S(=O)(=O)N1CCOCC1` returned a melting point of 97 to 99 °C.

Turning to `ONCc1ccc(F)cc1`, the melting point lay within 59 to 61 °C.

`Clc1noc(-c2ccsc2)n1` came in with a melting point of 108 to 110 °C.

Consider `CN(C)c1ccc(N)c2cnccc12`, for which the melting point lay in the range of 107 to 109 °C.

With `CCOc1ccc(C(=O)CCl)cc1`, the melting point lay in the range of 63 to 65 °C.

Compound `Cc1ccccc1NC1=NC(C)(C)CS1` yielded a melting point of 159 to 161 °C.

As to `Nc1nnc(CC2CCCC2)o1`, the melting point was 174 to 176 °C.

`CCN1CCN(S(=O)(=O)c2ccc(CCC(=O)O)cc2)CC1`: the melting point fell in the range of 239 to 241 °C.

`O=C(O)CCS(=O)(=O)C(F)(F)F`: the melting point lay in the range of 104 to 106 °C.

In the case of `Cn1ccnc1C(N)c1ccc(Cl)cc1` (stereo not drawn), the melting point is 45 to 49 °C.

On to `Cc1noc(C=Cc2ccc(F)cc2)c1N`, for which the melting point lay within 167 to 169 °C.

Turning to `CC(C)N1C(=O)CNC1=O`, the melting point was in the range of 83 to 85 °C.

`O=C(O)C(Cn1ccc(C(F)(F)F)n1)NC1CC1` (stereo not drawn) gave a melting point of 175 to 177 °C.

`CCOC(=O)c1csc(NC2CC2)n1` displayed a melting point of 89 to 91 °C.

With `CC1CCC2(CC1)NC(=O)NC2=O` (stereo not drawn), the melting point was 230 to 232 °C.

Turning to `COC(=O)c1cc(N)ccc1F`, the melting point is 84 to 86 °C.

With `Cc1ccccc1Nc1nc(Cl)c(C=O)s1`, the melting point lay within 153 to 155 °C.

The compound `Nc1cc(=O)[nH]c(=O)n1Cc1ccccc1` showed a melting point of 284 to 286 °C.

Take `COc1ccc(C(C)=O)cc1CN1CCOCC1`: the melting point was 58 to 60 °C.

As for `CN(C)C(=O)c1ccnc(N)c1`, the melting point was in the range of 196 to 198 °C.

The compound `Cc1csc(-c2no[nH]c2=N)n1` yielded a melting point of 147 to 149 °C.

With `Cc1ccc(C)c2sc(N)nc12`, the melting point lay within 151 to 153 °C.

In turn, `CS(=O)(=O)NCc1ccc(N)cc1` showed a melting point of 146 to 148 °C.

The compound `CCNC(=O)OCC(F)(F)F` gave a melting point of 27 to 29 °C.

The compound `N#CCCn1cc(C(N)=O)cn1` registered a melting point of 179 to 181 °C.

As to `CN(C)c1ccc(C#N)c(N)c1`, the melting point is 109 to 111 °C.

Compound `CCC(C)C(NC1=NS(=O)(=O)c2ccccc21)C(=O)O` (stereo not drawn) registered a melting point of 203 to 205 °C.

With `NC(=O)c1c(N)sc2c1-c1ccccc1CCC2`, the melting point was in the range of 145 to 147 °C.

Turning to `Cc1ccc2cccc(S(=O)(=O)Cl)c2n1`, the melting point was 113 to 115 °C.

Take `CCOc1ccc(Cl)c(C(=O)O)n1`: the melting point was 127 to 129 °C.

For the compound `CC(O)c1nc2cc(C(F)(F)F)ccc2n1C` (stereo not drawn), the melting point was in the range of 99 to 101 °C.

Take `Clc1ccc(-c2nc3ccccc3[nH]2)cn1`: the melting point lay in the range of 198 to 200 °C.

Regarding `COc1cc(OC)cc(C(=O)Nc2ccc(O)c(C(=O)O)c2)c1`, the melting point fell in the range of 241 to 243 °C.

Regarding `CC(C)(C)OC(=O)Oc1ccc(N)cc1`, the melting point lay within 112 to 114 °C.

`Cc1cc(C)c(C#N)c(=S)[nH]1` yielded a melting point of 255 to 257 °C.

`O=C(O)CC(Br)C(=O)c1ccc(Br)cc1` (stereo not drawn) had a melting point of 109 to 111 °C.

`COc1ccc([N+](=O)[O-])cc1CN=[N+]=[N-]` showed a melting point of 33 to 35 °C.

Regarding `O=S(=O)(c1nnc[nH]1)N1CCNCC1`, the melting point lay in the range of 240 to 242 °C.

In turn, `Cc1ccc(S(=O)(=O)Nc2cccc(C(F)(F)F)c2)cc1N` had a melting point of 116 to 118 °C.

Take `Nc1ccc(F)c(N(S(=O)(=O)c2ccccc2)S(=O)(=O)c2ccccc2)c1`: the melting point lay in the range of 159 to 161 °C.

`O=C(O)c1cc(C2CC2)[nH]n1` gave a melting point of 193 to 195 °C.

On to `O=Cc1ccc(-c2ccc([N+](=O)[O-])cc2Cl)o1`, for which the melting point was in the range of 136 to 138 °C.

As for `COc1ncc(C)cc1N`, the melting point is 77 to 79 °C.

As for `CC(Sc1ccc(Br)cc1)C(=O)O` (stereo not drawn), the melting point lay in the range of 113 to 115 °C.

The compound `O=CC(Br)C=O` registered a melting point of 132 to 134 °C.
